Laboratory results published in patent publication US20250171404A1, “PCNA INHIBITORS AND USES THEREOF” (CITY OF HOPE, priority 2022, published 2025).
Like-named read-outs stand apart in the source and are kept apart here. Each block holds one molecule with its values, some of them ahead of it.

What was measured:
SK-N-DZ = assay: Cell growth IC50, screening of AOH1160 analogs; assay type: cell-based; conditions: Homo sapiens
Description: (§1) FIG. 29. IC50 data for select compounds. The indicated cell lines were seeded at 10^4 cells per well in a 96 well plate. After allowing to attach to the plate overnight, cells were treated with various concentrations of the indicated compounds in triplicates for 72 hrs. The cell growth was measured by an SRB assay. The cell abundances under each treatment condition relative to the baseline were averaged and graphed ±S.D. The baseline is defined as the median value of the cell abundances under the treatment by the two lowest compound concentrations. The IC50 was calculated by the Prism program.

SK-N-BE(2)c = assay: Cell growth IC50, screening of AOH1160 analogs; assay type: cell-based; conditions: Homo sapiens
Description: as §1

SK-N-AS = assay: Cell growth IC50, screening of AOH1160 analogs; assay type: cell-based; conditions: Homo sapiens
Description: as §1

MDA-MB-468 = assay: Cell growth IC50, screening of AOH1160 analogs; assay type: cell-based; conditions: Homo sapiens, MDA-MB-468; read-out: IC50 values
Description: as §1

H1753 = assay: Cell growth IC50, screening of AOH1160 analogs; assay type: cell-based
Description: as §1

H358 = assay: Cell growth IC50, screening of AOH1160 analogs; assay type: cell-based; conditions: Homo sapiens, NCI-H358
Description: as §1

A375 = assay: Cell growth IC50, screening of AOH1160 analogs; assay type: cell-based; conditions: Homo sapiens, A-375
Description: as §1

Hela = assay: Cell growth IC50, screening of AOH1160 analogs; assay type: cell-based; conditions: Homo sapiens
Description: as §1

HCT-116 = assay: Cell growth IC50, screening of AOH1160 analogs; assay type: cell-based; conditions: Homo sapiens, HCT-116; read-out: IC50 values
Description: as §1

RKO = assay: Cell growth IC50, screening of AOH1160 analogs; assay type: cell-based; conditions: Homo sapiens, read-out: IC50 values
Description: as §1

OVCAR8 = assay: Cell growth IC50, screening of AOH1160 analogs; assay type: cell-based; conditions: Homo sapiens, OVCAR-8; OVCAR8; read-out: IC50 values
Description: as §1

A673 = assay: Cell growth IC50, screening of AOH1160 analogs; assay type: cell-based; conditions: Homo sapiens
Description: as §1

A549 = assay: Cell growth IC50, screening of AOH1160 analogs; assay type: cell-based; conditions: Homo sapiens
Description: as §1

[1] = tested on: SK-N-AS derived xenograft tumors; assay: Survival of mice bearing xenograft tumors, AOH1996 with CPT-11; assay type: in vivo, ES1^e/SCID mice; conditions: AOH1996 80 mg/kg oral 8 d; CPT-11 15 mg/kg i.p. 3 d; vs untreated
Description: FIGS. 4A-4H. Pharmacokinetics and anti-tumor growth activity of AOH1996 in vivo. FIG. 4A: After oral administration, the plasma concentrations of AOH1996 from three male and three female ES1^e/SCID mice at the indicated time points were averaged and graphed ±S.D. The inset contains PK parameters determined by a standard noncompartmental method. FIG. 4B: A similar PK study of AOH1996 was performed in dogs. FIGS. 4C-4E: Mice bearing the xenograft tumors of neuroblastoma (FIG. 4C: SK-N-BE(2)c), breast cancer (FIG. 4D: MDA-MB-468), and small-cell lung cancer (FIG. 4E: H82) were given vehicle only (black) or 40 mg/kg of AOH1996 (grey) twice daily immediately after the first measurement. Tumor sizes were measured by a dial caliper each week. Tumor volumes (0.4×L×W^2) were averaged and graphed ±S.E. (*, P<0.01). FIG. 4F: Animal body weight was monitored throughout the studies as an indicator of toxicity. […] FIG. 4G: The levels of phosphor-Chk1 (pChk1) and γH2A.X in SK-N-BE(2)c derived tumor samples were analyzed by IHC. […] The p values determined by the Log-rank (Mantel-Cox) test between combination treatment and each of the control groups are p=0.0003 (Combination vs. NoRx), p=0.005 (Combination vs. AOH1996 alone), and p=0.024 (Combination vs. CPT-11 alone). […]
In vivo tumor model. […] Tumor size and animal weight were measured weekly. […]

caPCNA = caPCNA (Homo sapiens, UniProt P12004); assay: Molecular probe binding in vitro
Sequence of caPCNA (P12004 whole entry): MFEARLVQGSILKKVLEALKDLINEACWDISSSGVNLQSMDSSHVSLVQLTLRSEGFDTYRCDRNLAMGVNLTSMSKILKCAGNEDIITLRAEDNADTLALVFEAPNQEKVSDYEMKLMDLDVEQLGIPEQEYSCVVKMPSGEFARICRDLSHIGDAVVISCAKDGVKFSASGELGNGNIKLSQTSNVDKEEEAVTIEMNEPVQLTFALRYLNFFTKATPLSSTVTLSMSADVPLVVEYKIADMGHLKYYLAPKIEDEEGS

Compound: COc1cccc(Oc2ccccc2NC(=O)[C@H](C)NC(=O)c2cccc3ccccc23)c1 [AOH1996LA, (S)—N-(1-((2-(3-methoxyphenoxy)phenyl)amino)-1-oxopropan-2-yl)-1-naphthamide]
IC50 (MDA-MB-468): 2300 nM | IC50 (H1753; FIG. 26, H1752, read-out: IC50): 1600 nM | IC50 (H1753; H1753, read-out: IC50 values): 1600 nM | IC50 (H358; FIG. 26, H358, read-out: IC50): 1800 nM | IC50 (H358; read-out: IC50 values): 1800 nM | IC50 (SK-N-AS; FIG. 26, AK-N-AS, read-out: IC50): 1500 nM | IC50 (SK-N-AS; read-out: IC50 values): 1500 nM

Compound: COc1cccc(Oc2ccccc2NC(=O)CNC(=O)c2c(C)cc(C)cc2C)c1 [AOH1996TMB, N-(2-((2-(3-methoxyphenoxy)phenyl)amino)-2-oxoethyl)-2,4,6-trimethylbenzamide]
IC50 (Hela; HeLa, read-out: IC50 values): 6500 nM | IC50 (Hela; FIG. 27, Hela, read-out: IC50): 6500 nM | IC50 (A673; FIG. 27, read-out: IC50): 5500 nM | IC50 (A673; read-out: IC50 values): 5500 nM | IC50 (A549; FIG. 27, read-out: IC50): 4700 nM | IC50 (A549; read-out: IC50 values): 4700 nM

Compound: CCc1c2c(nc3ccc(OC(=O)N4CCC(N5CCCCC5)CC4)cc13)-c1cc3c(c(=O)n1C2)COC(=O)[C@]3(O)CC [CPT-11, reference compound]
increase of median survival [1]: 34.6%

Compound: N[C@@H](CCC(=O)O)C(=O)O [Glutamic acid]
binding to caPCNA as molecular probe (caPCNA): bound caPCNA tightly

Further lines, with some results ahead:

IC50 (SK-N-DZ): > 10000 nM | IC50 (SK-N-BE(2)c): > 10000 nM | IC50 (SK-N-AS; read-out: IC50 values): > 10000 nM
Compound: O=C(CNC(=O)c1cccc2ccccc12)Nc1c(Cl)cccc1Oc1ccccc1 [AOH1160-2-C1]

IC50 (A375): 170 nM | IC50 (Hela; HeLa, read-out: IC50 values): 370 nM
Compound: COc1cccc(Sc2ccccc2NC(=O)CNC(=O)c2cccc3ccccc23)c1 [AOH1996S, N-(2-((2-((3-methoxyphenyl)thio)phenyl)amino)-2-oxoethyl)-1-naphthamide]

IC50 (HCT-116): 2210 nM | IC50 (OVCAR8): 1600 nM
Compound: O=C(CNC(=O)c1cccc2ccccc12)Nc1ccccc1Sc1cccc(F)c1 [AOH1996S-3F, N-(2-((2-((3-fluorophenyl)thio)phenyl)amino)-2-oxoethyl)-1-naphthamide]
IC50 (RKO): 2320 nM

IC50 (A375): 350 nM | IC50 (SK-N-AS; read-out: IC50 values): 370 nM
Compound: O=C(CNC(=O)c1cccc2ccccc12)Nc1ccccc1Sc1ccc(F)cc1 [AOH1996S-4F, N-(2-((2-((4-fluorophenyl)thio)phenyl)amino)-2-oxoethyl)-1-naphthamide]

binding to caPCNA as molecular probe (caPCNA): bound caPCNA tightly
Compound: NCCCC[C@H](N)C(=O)O [Lysine]
